From US4338122A, “Biocidal 2-aryl-1,3-cyclopentanedione compounds and alkali metal and ammonium salts thereof” (Union Carbide Corporation, priority 1980, dated 1982) come the findings set out here.

Assay [1] relates to two-spotted mite (Tetranychus urticae (Koch)), adults and nymphal stages. The experiment in a line: Mite Foliage Spray Test (adult miticidal). Particulars: Table I; mortality count four days after spraying. Format: in vivo. Set-up: key to Miticidal, Adult (control rating): A: Excellent Control; B: Partial Control; No Control. On the procedure: (§1) Suspensions of the test compounds were prepared by dissolving one gram of compound in 50 milliliters of acetone in which had been dissolved 0.1 gram (10 percent of the weight of compound) of an alkylphenoxyethoxyethanol surfactant, as an emulsifying or dispersing agent. The resulting solution was mixed into 160 milliliters of water to give roughly 200 milliliters of a suspension containing the compound in finely divided form. The thus prepared stock suspension contained 0.5 percent by weight of compound. The test concentrations employed in the tests described herein below were obtained by diluting the stock suspension with water. The test procedures were as follows:
Adults and nymphal stages of the two-spotted mite (Tetranychus urticae (Koch)), reared on Tendergreen bean plants at 80°±5° F. and 50±5 percent relative humidity, were the test organisms. Infested leaves from a stock culture were placed on the primary leaves of two bean plants six to eight inches in height, growing in a two-and-a-half inch clay pot. 150-200 Mites, a sufficient number for testing, transferred from the excised leaves to the fresh plants in a period of twenty-four hours. Following the twenty-four hour transfer period, the excised leaves were removed from the infested plants. The test compounds were formulated by diluting the stock suspension with water to provide suspensions containing the desired amount of test compound per million parts of final formulation. The potted plants (one pot per compound) were placed on a revolving turntable and sprayed with 100-110 milliliters of test compound formulation by use of a DeVilbis spray gun set at 40 psi. air pressure. This application, which lasted 30 seconds, was sufficient to wet the plants to run-off. As a control, 100-110 milliliters of a water solution containing acetone and emulsifier in the same concentrations as the test compound formulation, but containing no test compound, were also sprayed on infested plants. The sprayed plants were held at 80°±5° F. and 50±5 percent relative humidity for four days, after which, a mortality count of motile forms was made on the leaves of the test plants. Any individual which was capable of locomotion upon prodding was considered living.
(§2) In these tests the pesticidal activity of the compounds against mites and mite eggs were rated as follows:
(§3) Tests were conducted in accordance with the procedures given at pages 32 to 37 supra. The results are expressed in the same manner as used in Table I, except with respect to miticidal activity. For mite adult and mite egg comparison purposes, results are given in parts per million (ppm) required for a 50 percent kill of mites or eggs, respectively.

In assay [2] the test system is egg of the two-spotted mite (Tetranychus urticae (Koch)). The experiment in a line: Mite Ovicide Test (egg). Format: in vivo. On the set-up: key to Miticidal, Egg (control rating): A: Excellent Control; B: Partial Control; No Control. As to conditions: Table I; unhatched/hatched eggs four days after spraying. On the procedure:
as §1
The test organism was the egg of the two-spotted mite (Tetranychus urticae (Koch)), as obtained from adults reared on Tendergreen bean plants under controlled conditions of 80°±5° F. and 50±5 percent relative humidity. Heavily infested leaves from a stock culture were placed on the primary leaves of two bean plants six to eight inches in height growing in a two-and-a-half inch clay pot. Females were allowed to oviposit for a period of 48 hours and then the leaves of the infested plants were dipped in a solution containing 800 parts of tetraethyl pyrophosphate per million parts of water in order to destroy the reproductory forms and thus prevent further egg laying. […] The plants were allowed to dry thoroughly. The test compounds were formulated by diluting the stock suspension with water to give a suspension containing varying amounts of test compound per million parts of final formulation. The potted plants (one pot per compound) were placed on a revolving turntable and sprayed with 100-110 milliliters of test compound formulation by use of a DeVilbis spray gun set at 40 spig. air pressure. This application which lasted 30 seconds, was sufficient to wet the plants to run-off. As a control, 100-110 milliliters of a water solution containing acetone and emulsifier in the same concentrations as the test compound formulation, but containing no test compound, were also sprayed on plants infested with eggs. The sprayed plants were held at 80°±5° F. and 50±5 percent relative humidity for four days, after which a microscopic examination was made of unhatched (dead) and hatched (living) eggs.
as §2, §3

Turning to `O=C1C(c2ccc(Cl)cc2Cl)C(=O)C2CC=CCC12` (centres unmarked) [Cl Cl H (CH2 CHCHCH2), 8-(2',4'-dichlorophenyl)bicyclo[4.3.0]non-3-en-7,9-dione], in assay [1], the “Miticidal, Adult (control rating)” value is on record as “A”. Further, in assay [2], the “Miticidal, Egg (control rating)” value is “A”.
